# Reference: patent US12285403B2, “A2-73 as a therapeutic for insomnia, anxiety and agitation” (Anavex Life Sciences Corp., priority 2016, dated 2025)
# Entries after “also recorded” stand apart in the source; their conditions may differ.
# How the values were obtained:
# Type in all cases: in vivo, human
# [1] = test system: mild-to-moderate Alzheimer's disease patients; experiment: Cogstate test battery, Phase 2a study; conditions: over 31 weeks of treatment; FIG. 8; listed as ANAVEX 2-73, hydrochloride
# Source text: Although the present invention calls for methods of treating insomnia, some primary sleep disorders, such as circadian rhythm disorders, advanced sleep phase disorder also termed sleep onset insomnia, mid-nocturnal insomnia, early morning insomnia, hyper insomnia, trouble staying asleep, jet lag, narcolepsy, non-24-hour sleep-wake syndrome, include insomnia as a component of the disorder. Thus, the term “insomnia” should be understood to also include the insomnia component of these disorders. • Aβ—Amyloid beta is abbreviated as Aβ. • AD—Alzheimer's disease is abbreviated as AD. • ADCS-ADL—Alzheimer's Disease Cooperative Study Activities of Daily Living Inventory is abbreviated as ADCS-ADL. • Cogstate tasks—Cogstate tasks refers to Cogstate cognitive tests (Cogstate Alzheimer's Battery) using visual and verbal stimuli to ensure assessment. […] When a number of these individual tests are put together to form a test battery, a more complete picture of a person's cognitive state can be defined. • DPZ—Donepezil is abbreviated as DPZ. • EEG/ERP—EEG/ERP is a reference to ERP measured via EEG. • ERP—Event-related potential is abbreviated as ERP. • HAM-D—Hamilton Depression Rating Scale is abbreviated as HAM-D. • MCI—Mild cognitive impairment is abbreviated as MCI. • MMSE—MMSE refers to the Mini-Mental State Examination (MMSE) or Folstein test. […]
# [2] = Safety, tolerability and patient retention, Phase 2a study
# Source text: The safety and efficacy of A2-73 has been studied Phase 2a Study in mild-moderate Alzheimer's disease patients. […] Without being bound by any particular theory, it is believed that A2-73 activates the stress-reducing and survival protein, the Sigma-1 receptor. The data of Table 1 is from an open-label, clinical trial, performed on a group of 30 mild-to-moderate AD patients (MMSE range 16-23, 40% female) on donepezil treatment, with […] 2-73. […]
# [3] = test system: mild-to-moderate Alzheimer's disease patients; experiment: ADCS-ADL (Activities of Daily Living), Phase 2a study; conditions: for ADCS-ADL scores: through week 31, oral daily 10 mg to 50 mg, FIG. 2
# Source text: Although the present invention calls for methods of treating insomnia, some primary sleep disorders, such as circadian rhythm disorders, advanced sleep phase disorder also termed sleep onset insomnia, mid-nocturnal insomnia, early morning insomnia, hyper insomnia, trouble staying asleep, jet lag, narcolepsy, non-24-hour sleep-wake syndrome, include insomnia as a component of the disorder. Thus, the term “insomnia” should be understood to also include the insomnia component of these disorders. • Aβ—Amyloid beta is abbreviated as Aβ. • AD—Alzheimer's disease is abbreviated as AD. • ADCS-ADL—Alzheimer's Disease Cooperative Study Activities of Daily Living Inventory is abbreviated as ADCS-ADL. • Cogstate tasks—Cogstate tasks refers to Cogstate cognitive tests (Cogstate Alzheimer's Battery) using visual and verbal stimuli to ensure assessment. These tests assess cognitive function in adults with mild cognitive impairment and clinically-diagnosed Alzheimer's disease. The test is culture-neutral and not limited by a subject or participant's level of education. A Cogstate battery comprises a number of individual tests—each designed to test a specific area of cognition. When a number of these individual tests are put together to form a test battery, a more complete picture of a person's cognitive state can be defined. • DPZ—Donepezil is abbreviated as DPZ. • EEG/ERP—EEG/ERP is a reference to ERP measured via EEG. • ERP—Event-related potential is abbreviated as ERP. • HAM-D—Hamilton Depression Rating Scale is abbreviated as HAM-D. • MCI—Mild cognitive impairment is abbreviated as MCI. • MMSE—MMSE refers to the Mini-Mental State Examination (MMSE) or Folstein test. This test is a 30-point questionnaire that is used extensively in clinical and research settings to measure cognitive impairment. • SWS—Slow-wave sleep is abbreviated as SWS. • WASO.—Waking after sleep onset is abbreviated WASO.
# Efficacy data is presented through 31 week from the randomized (into different treatment regimens) open-label study with ANAVEX 2-73 oral daily dosing ranging from 10 mg to 50 mg. […]
smiles,measurement,setting,value
"CN(C)CC1CCOC1(c1ccccc1)c1ccccc1.Cl (stereo not drawn) [A2-73, tetrahydro-N,N-dimethyl-2,2-diphenyl-3-furanmethanamine hydrochloride]","Cogstate tasks: psychomotor function, attention and working memory",[1],sustained benefit; also recorded: benefits over baseline
same,Adverse event: headache,[2]; 30 mg,10%
same,Adverse event: mild dizziness,[2]; 30 mg,5%
same,Changes in clinical labs and EKGs,[2]; 30 mg,no significant changes
same,Tolerability,[2]; 30 mg,well tolerated
same,Safety and tolerability/risk profile,"[2]; 32 patients with mild-to-moderate AD, Phase 2a",favorable safety and tolerability/risk profile
same,"ADCS-ADL score, ANAVEX 2-73 alone vs ANAVEX 2-73 with DPZ (donepezil)","[3]; over 31 weeks, exploratory analysis, FIG. 6",no notable difference
same,ADCS-ADL scores,[3]; hydrochloride,maintained at a constant level
same,ADCS-ADL scores,"[3]; listed as ANAVEX 2-73, hydrochloride",preserves average MMSE and ADCS-ADL scores
